Assay results published in patent US20150140015A1, “METHODS AND PHARMACEUTICAL COMPOSITIONS FOR THE TREATMENT OF PANCREATIC CANCER” (INSERM (Institut National de la Sante et de la Recherche …, priority 2013, published 2015).

Key:
Assay type in all cases: cell-based, human
[1] = test system: parental HPAF-II cells; test: Activated caspase-3 immunostaining in parental HPAF-II cells; details: 1 μM orexin-A, 48 hr
Experimental: (§1) FIGS. 5A and B. Effect of orexin-A on apoptosis in OX1R expressing recombinant OX1R/HPAF-II cells. A, Parental HPAF-II and recombinant OX1R/HPAF-II cells were challenged with (black bars) or without (white bars) 1 μM orexin-A for 48 hr in the absence or presence of the SHP-2 protein tyrosine phosphatase inhibitor, NSC-87877 (50 μM). Apoptosis was measured by determination of annexin V-PE binding. Results are expressed as the percentage of apoptotic cells, and are the means±SE of three separate experiments. ***p<0.001; ns, non-significant; B, paraformaldehyde-fixed HPAF-II cells and recombinant OX1R/HPAF-II cells were challenged with or without (Basal) 1 μM orexin-A for 48 hr. […]
(§2) After dewaxing, rehydrating tumor paraffin sections, and antigen retrieval by pretreatment with high temperature at pH 9, immunohistochemical procedures were carried out using an automated immunohistochemical stainer according to the manufacturer's guidelines (Bond-Max slide stainer, Menarini, Leica Microsystems). […] OX1R immunostaining was evaluated by two investigators (TV and AC) by calculating a score (0-300) obtained by multiplying the intensity (negative, 0; weak, 1; moderate, 2; and strong, 3) by the percentage of stained cells. The pattern of expression (cytoplasmic, membranous, and nuclear) was also recorded, and a mean score was calculated for each tumor. […]

[2] = test system: recombinant OX1R/HPAF-II cells; test: Activated caspase-3 immunostaining in recombinant OX1R/HPAF-II cells; details: 1 μM orexin-A, 48 hr
Experimental: as §1, §2

[3] = test system: AsPC-1 cells; test: Quantification of apoptotic cells by annexin V-PE labeling in AsPC-1 cells; details: 1 μM orexin-A, 48 hr
Experimental: FIG. 4A-C. Effect of orexin-A on apoptosis in AsPC-1 cells. A, SHP-2 protein tyrosine phosphatase inhibitor, NSC-87877, blocks orexin-induced apoptosis. AsPC-1 cells were challenged with (black bars) or without (white bars) 1 μM orexin-A for 48 hr in the absence or presence of NSC-87877 (50 μM). Apoptosis was measured by determination of annexin V-PE binding, and results are expressed as the percentage of apoptotic cells; B and C: Indirect immunostaining of activated caspase-3 in AsPC-1 cells in the presence or absence of orexin-A. Paraformaldehyde-fixed AsPC-1 cells were challenged with (orexin-A) or without (basal) 1 μM orexin-A for 48 hr. Activated caspase-3 immunostaining is shown in B and scored in C. Results are means±SE of three separate experiments. ***p<0.001; ns, non-significant.
AsPC-1, SW 1990, HPAF-II and HPAF-II/hOX1R cells (seeded at 5×10^4 cells/well) were grown in 24-well plates for 24 hr under the culture conditions described above. The culture medium was then replaced every 24 hr with fresh medium with or without orexin-A (GL Biochemicals) at a concentration of 1 μM in the presence or absence of the SHP-2 inhibitor, NSC-87877 (50 μM) (Calbiochem, VWR International SAS, France). At the end of the treatment (48 hr), apoptotic cells were determined using the Guava Nexin™ kit (Guava Technologies, Hayward, Calif., USA), which discriminates between apoptotic and non-apoptotic cells (Rouet-Benzineb P, Rouyer-Fessard C, Jarry A, et al. Orexins Acting at Native OX1 Receptor in Colon Cancer and Neuroblastoma Cells or at Recombinant OX1 Receptor Suppress Cell Growth by Inducing Apoptosis. J Biol Chem 2004; 279:45875-86), analyzed with the Guava Personal Cell Analysis (PCA) system (Merck-Millipore, Guyancourt, France), and counted (2,000 events) (Voisin et al, 2008, as above). Results are expressed as the percentage of apoptotic phycoerythrin-labelled Annexin V (Annexin V-PE) positive cells and are the means of 3 independent analyses.

[4] = test system: AsPC-1 cells; test: Cell growth of AsPC-1 cells (cell counting); details: Example 1; Orexin-A treatment of the OX1R-expressing AsPC-1 cell line
Experimental: FIG. 9. Effect of Orexin-B anti-OX1R antibodies on cell growth of AsPC-1 cells. Cells were incubated with 0.1 μM of OxB or antibodies for 48 h in culture medium and then cells were counted in order to estimate the cellular growth.
The aims of this study were: 1/ to investigate the presence of OX1R in human PAC cell lines and to analyze orexin-A effects in relation to apoptosis; 2/ to develop an in vivo heterotopic xenograft model from the cell lines expressing OX1R, for the study of tumor growth in response to Orexin-A. The expression of OX1R was studied at mRNA (RT-PCR), proteins (immunocytochemistry) and functional levels in 3 PAC cell lines (AsPC-1, HPAF-II and SW1990). The development of an animal model (heterotopic xenograft) from the cell line expressing OX1R, has allowed studying the effect of Orexin-A in tumor growth. Resected tumors were analyzed by immunohistochemistry. Only AsPC-1 cell line expresses OX1R.
The development of antibodies directed against OX1R were produced by a phage display strategy and the antibody selection was performed by using HEK and HEK stably expressing OX1R (HEK-OX1R) cell lines. […] Cells were incubated with 0.1 μM of OxB or antibodies for 48 h in culture medium and then cells were counted in order to estimate the cellular growth. […]

orexin-A: 33 amino acid hypothalamic neuropeptide, OX1R agonist, SEQ ID NO:2; peptide from GL Biochemicals
caspase-3 activation [1]: no activation
caspase-3 activation [2]: strong caspase-3 activation
percentage of apoptotic cells (annexin V-PE) [3]: 24.3%±1.4
cell growth inhibition [4]: 32%
